One assay addresses T1, SaSir2-HerA (Staphylococcus aureus, UniProt C1PH93).
T1 sequence (C1PH93 1-428): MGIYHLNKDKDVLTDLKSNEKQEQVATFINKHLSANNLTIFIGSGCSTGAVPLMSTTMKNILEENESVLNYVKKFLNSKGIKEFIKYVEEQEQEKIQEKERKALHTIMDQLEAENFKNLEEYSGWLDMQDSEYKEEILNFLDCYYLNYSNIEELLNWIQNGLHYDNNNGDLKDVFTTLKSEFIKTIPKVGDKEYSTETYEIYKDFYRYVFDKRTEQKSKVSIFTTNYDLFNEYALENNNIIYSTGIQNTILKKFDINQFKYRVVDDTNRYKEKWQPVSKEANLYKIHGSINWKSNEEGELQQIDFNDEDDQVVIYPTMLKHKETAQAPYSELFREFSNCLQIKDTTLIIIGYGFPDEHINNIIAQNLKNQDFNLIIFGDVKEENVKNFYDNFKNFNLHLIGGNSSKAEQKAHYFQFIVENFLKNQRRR
T1 sequence (C1PH94 1-562 partner): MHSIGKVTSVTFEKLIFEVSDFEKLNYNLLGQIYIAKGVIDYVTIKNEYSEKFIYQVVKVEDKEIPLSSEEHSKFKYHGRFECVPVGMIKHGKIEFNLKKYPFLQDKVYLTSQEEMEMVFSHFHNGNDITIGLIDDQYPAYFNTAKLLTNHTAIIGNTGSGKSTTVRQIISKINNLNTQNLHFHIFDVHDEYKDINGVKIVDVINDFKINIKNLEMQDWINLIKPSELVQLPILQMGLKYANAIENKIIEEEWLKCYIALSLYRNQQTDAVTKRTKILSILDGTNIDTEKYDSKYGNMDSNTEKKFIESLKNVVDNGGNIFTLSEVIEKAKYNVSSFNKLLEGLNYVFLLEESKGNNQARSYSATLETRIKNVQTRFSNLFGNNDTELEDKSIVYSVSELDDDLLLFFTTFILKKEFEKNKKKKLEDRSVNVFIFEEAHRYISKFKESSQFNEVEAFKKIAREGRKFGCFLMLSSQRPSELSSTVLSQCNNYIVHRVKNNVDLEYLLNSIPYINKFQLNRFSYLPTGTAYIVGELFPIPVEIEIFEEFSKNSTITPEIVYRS
As to the kind of experiment: biolayer interferometry, protein captured on Ni-NTA sensor. The format is binding. A general note: In BLI a coated tip is dipped into the sample, and binding shifts an interference pattern.

Assay [1] concerns the target SaSir2 (Sir2 of Staphylococcus aureus), 6x His-tagged, expressed alone (Staphylococcus aureus). As to the kind of experiment: AUC.

Results on 2 molecules are retold here after article PMC11514289 (Nature Communications, 2024).

pKd: −log10 of the molar value.

A word on the pKd: it is the negative decadic logarithm of the Kd, by convention in mol/L. On SaSir2-HerA, `NC(=O)c1ccc[n+]([C@@H]2O[C@H](COP(=O)(O)OP(=O)(O)OC[C@H]3O[C@@H](n4cnc5c(N)ncnc54)[C@H](O)[C@@H]3O)[C@@H](O)[C@H]2O)c1` [NAD^+] gave a pKd of 5.36.
The stoichiometry N is a count of units in the complex or per binding partner. The molecule “SaSir2 (Sir2 of Staphylococcus aureus), 6x His-tagged, expressed alone (enzyme)” registered a stoichiometry N in assay [1] of 2.
